Read-outs that look alike come from different tables or passages of the source.
Key:
Rhodazain = Rhodazain (Trypanosoma brucei rhodesiense, UniProt Q95PM0); assay: Cysteine protease inhibition, progress curve method, rhodazain; format: biochemical, Trypanosoma brucei rhodesiensi; conditions: 10 uM Cbz-Leu-Arg-AMC, 100 mM Na acetate pH 5.5, 5 mM cysteine
Cruzain = Cruzain (Trypanosoma cruzi, UniProt P25779); assay: Cysteine protease inhibition, progress curve method, cruzain; format: biochemical; conditions: 4 uM Ac-Lys-Glu-Lys-Leu-Arg-AMC, 100 mM Na acetate pH 5.5, 5 mM cysteine
Cruzain, sequence (P25779 123-337): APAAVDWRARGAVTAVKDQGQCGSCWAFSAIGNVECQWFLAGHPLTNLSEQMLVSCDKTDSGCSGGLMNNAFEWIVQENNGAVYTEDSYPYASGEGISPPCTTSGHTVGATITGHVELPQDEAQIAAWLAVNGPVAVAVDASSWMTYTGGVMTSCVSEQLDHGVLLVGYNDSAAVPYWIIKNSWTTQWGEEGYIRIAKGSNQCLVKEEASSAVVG
How it was run: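 Buffer was 100 mM sodium acetate pH 5.5 with 5 mM cysteine and 2% DMSO, at ambient temperature; reactions started with enzyme, and AMC formation was followed for 20–30 min. Substrates: Leishmania and Schistosoma, 10 uM Cbz-Phe-Arg-AMC; falcipain, 10 uM Cbz-Leu-Arg-AMC; cruzain, 4 uM Ac-Lys-Glu-Lys-Leu-Arg-AMC. Linear curves gave Ki,app; curved ones gave kobs/[I].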

Rhodazain, sequence (Q95PM0 entry or part of it): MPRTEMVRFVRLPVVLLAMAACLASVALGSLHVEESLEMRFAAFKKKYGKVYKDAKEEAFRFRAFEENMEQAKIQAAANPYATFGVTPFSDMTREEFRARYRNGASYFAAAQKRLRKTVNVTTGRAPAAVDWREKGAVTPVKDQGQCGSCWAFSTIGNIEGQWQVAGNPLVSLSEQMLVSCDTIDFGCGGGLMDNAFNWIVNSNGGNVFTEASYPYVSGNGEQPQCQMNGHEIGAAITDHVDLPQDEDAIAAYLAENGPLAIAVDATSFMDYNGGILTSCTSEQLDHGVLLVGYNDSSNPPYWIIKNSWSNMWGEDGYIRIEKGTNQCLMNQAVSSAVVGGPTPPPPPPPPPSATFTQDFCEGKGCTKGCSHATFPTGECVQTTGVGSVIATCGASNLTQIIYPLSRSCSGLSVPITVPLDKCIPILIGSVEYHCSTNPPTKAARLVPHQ

Row | Ki (Cruzain; Cruzain Ki nM) [nM] | Compound | Ki (Rhodazain; Rhodazain Ki (nM)) [nM] | Ki (Cruzain; read-out: Cruzain Ki) [nM] | Ki (Rhodazain; read-out: Rhodazain Ki) [nM]
1 |  | COc1ccc2oc(C(=O)N[C@@H](CC(C)C)C(=O)N[C@H]3CCN(S(=O)(=O)c4cccc[n+]4[O-])CCC3=O)c(C)c2c1 [Example 205, 5-Methoxy-3-methyl-benzofuran-2-carboxylic acid {(S)-3-methyl-1-[3-oxo-1-(1-oxy-pyridine-2-sulfonyl)-azepan-4-ylcarbamoyl]-butyl}-amide] | 3.2 | 5.2 | 
2 |  | CC(C)C[C@@H](NC(=O)c1ccc(Br)o1)C(=O)N[C@@H]1CCCN(S(=O)(=O)c2ccccn2)CC1=O (stereo in doubt) [Example 34, 5-Bromo-furan-2-carboxylic acid {(S)-3-methyl-1-[3-oxo-1-(pyridine-2-sulfonyl)-azepan-4-ylcarbamoyl]-butyl}amide] | 2.6 | 12 | 
3 |  | Cc1cccnc1S(=O)(=O)N1CCC[C@@H](NC(=O)[C@@H](CC(C)C)NC(=O)c2oc3ccccc3c2C)C(=O)C1 (stereo in doubt) [Example 161, 3-Methyl-benzofuran-2-carboxylic acid {(S)-3-methyl-1-[1-(3-methyl-pyridine-2-sulfonyl)-3-oxo-azepan-4-ylcarbamoyl]-butyl}amide] | 6.4 | 7.8 | 
4 |  | CC(C)C[C@@H](NC(=O)c1ccc(Br)o1)C(=O)N[C@@H]1CCCN(S(=O)(=O)c2cccc[n+]2[O-])CC1=O [Example 47] | 2.7 | 13 | 
5 |  | CC(C)C[C@H](NC(=O)c1cc2cc(O)ccc2o1)C(=O)N[C@H]1CCCN(S(=O)(=O)c2cn(C)cn2)CC1=O [Example 44, 5-Hydroxy-benzofuran-2-carboxylic acid {(S)-3-methyl-1-[1-(1-methyl-1H-imidazole-4-sulfonyl)-3-oxo-azepan-4-ylcarbamoyl]-butyl}amide] | 7.2 | 11 | 
6 |  | Cc1cccnc1S(=O)(=O)N1CCC[C@@H](NC(=O)[C@@H](CC(C)C)NC(=O)c2cc3sccc3s2)C(=O)C1 [Example 160, Thieno [3.2-b]thiophene-2-carboxylic acid {(S)-3-methyl-1-[1-(3-methyl-pyridine-2-sulfonyl)-3-oxo-azepan-4-ylcarbamoyl]-butyl}amide] | 6.7 | 7.4 | 
7 |  | CC(C)C[C@@H](NC(=O)c1cc2cc(F)c(F)cc2o1)C(=O)N[C@@H]1CCCN(S(=O)(=O)c2ccccn2)CC1=O (stereo in doubt) [Example 149, 5,6-Difluoro-benzofuran-2-carboxylic acid {(S)-3-methyl-1-[1-(pyridine-2-sulfonyl)-3-oxo-azepan-4-ylcarbamoyl]-butyl}amide] | 6.3 | 9.1 | 
8 |  | CC(C)C[C@@H](NC(=O)c1cc2cc(F)ccc2o1)C(=O)N[C@H]1CCCN(S(=O)(=O)c2cccc[n+]2[O-])CC1=O [Example 191, 5-Fluoro-benzofuran-2-carboxylic acid {(S)-3-methyl-1-[3-oxo-1-(1-ox-pyridine-2-sulfonyl)-azepan-4-ylcarbamoyl]-butyl}-amide] | 8.3 | 12 | 
9 | 2.1 | CC(C)C[C@H](NC(=O)c1cccc2ccccc12)C(=O)N[C@H]1CCCN(S(=O)(=O)c2ccccn2)CC1=O [Example 184, Naphthalene-1-carboxylic acid {(S)-3-methyl-1-[3-oxo-1-(pyridine-2-sulfonyl)-azepan-4-ylcarbamoyl]-butyl}-amide] | 1.8 |  | 
10 |  | COc1ccc(C(=O)N[C@H](CC(C)C)C(=O)N[C@@H]2CCCN(S(=O)(=O)c3ccccc3C#N)CC2=O)cc1OC [Example 120] | 11 | 9.9 | 
11 |  | CC(C)C[C@H](NC(=O)c1cc2ccccc2o1)C(=O)N[C@H]1CCCN(S(=O)(=O)c2cccs2)CC1=O [Example 142, Benzofuran-2-carboxylic acid-{(S)-3-methyl-1-[3-oxo-1-(thiophene-2-sulfonyl)-azepan-4-ylcarbamoyl]-butyl}-amide] | 5.2 | 2.4 | 
12 |  | Cc1ccc2oc(C(=O)NC(CC(C)C)C(=O)N[C@H]3CCN(S(=O)(=O)c4cccc[n+]4[O-])CCC3=O)c(C)c2c1 (single isomer, unassigned) [Example 206] | 4.9 | 6.6 | 
13 |  | Cc1c(C(=O)N[C@H](CC(C)C)C(=O)N[C@@H]2CCCN(S(=O)(=O)c3ccccn3)CC2=O)oc2ccccc12 (single isomer, unassigned) [Example 97] | 2.7 | 4 | 
14 |  | Cc1c(C(=O)N[C@@H](CC(C)C)C(=O)N[C@H]2CCCN(C(=O)Nc3ccccc3F)CC2=O)oc2ccccc12 [Example 216, 3-Methyl-benzofuran-2-carboxylic acid {(S)-1-[1-(2-fluoro-phenylcarbamoyl)-3-oxo-azepan-4-ylcarbamoyl]-3-methyl-butyl}-amide] | 3.4 | 6.9 | 
15 |  | CC(C)C[C@@H](NC(=O)c1cc2cc(OCC[N+]3([O-])CCOCC3)ccc2o1)C(=O)N[C@@H]1CCCN(S(=O)(=O)c2ccccn2)CC1=O [Example 43, 5-(4-Oxy-morpholino-4-yl-ethoxy)-benzofuran-2-carboxylic acid {(S)-3-methyl-1-[3-oxo-1-(pyridine-2-sulfonyl)-azepan-4-ylcarbamoyl]-butyl}amide] | 4.9 | 3.6 | 
16 |  | CC(C)C[C@@H](NC(=O)c1ccc2ccccc2n1)C(=O)N[C@@H]1CCCN(S(=O)(=O)c2ccccn2)CC1=O (single isomer, unassigned) [Example 151] | 6.1 | 7.1 | 
17 |  | 5,6-Dimethoxy-benzofuran-2-carboxylic acid {(S)-3-methyl-1-[3-oxo-1-(1-oxy-pyridine-2-sulfonyl)-azepan-4-ylcarbamoyl]-butyl}amide [Example 48] |  | 19 | 4.2
18 |  | CC(C)C[C@H](NC(=O)c1cc2ccccc2n1C)C(=O)N[C@H]1CCCN(S(=O)(=O)c2nccs2)CC1=O [Example 128, 1-Methyl-1H-indole-2-carboxylic acid{(S)-3-methyl-1-[3-oxo-1-(thiazole-2-sulfonyl)-azepan-4-ylcarbamoyl]-butyl}amide] | 8.2 | 17 | 
19 |  | CC(C)C[C@@H](NC(=O)c1cc2ccccc2o1)C(=O)N[C@@H]1CCCN(S(=O)(=O)c2cccc[n+]2[O-])CC1=O [Example 49] | 3.1 | 5.6 | 
20 |  | CC(C)CC(NC(=O)c1ccc(F)cc1)C(=O)N[C@@H]1CCCN(S(=O)(=O)c2cccc[n+]2[O-])CC1=O (stereo partly drawn) [Example 77, 4-Fluoro-{(S)-3-methyl-1-[3-oxo-1-(1-oxy-pyridine-2-sulfonyl)-azepan-4-carbamoyl]-butyl}-benzamide] | 7.9 | 15 | 
21 |  | CC(C)C[C@@H](NC(=O)c1ccc(Br)o1)C(=O)N[C@@H]1CCCN(S(=O)(=O)c2ccccn2)CC1=O (single isomer, unassigned) [Example 68] | 0.93 | 3.3 | 
22 |  | COc1cc2cc(C(=O)N[C@H](CC(C)C)C(=O)N[C@@H]3CCCN(S(=O)(=O)c4cccc[n+]4[O-])CC3=O)oc2cc1OC [Example 52, 5,6-Dimethoxy-benzofuran-2-carboxylic acid {(S)-3-methyl-1-[3-oxo-1-(1-oxy-pyridine-2-sulfonyl)-azepan-4-ylcarbamoyl]-butyl}amide] | 3.3 | 48 | 
23 |  | COc1ccc2oc(C(=O)N[C@@H](CC(C)C)C(=O)N[C@H]3CCCN(S(=O)(=O)c4ccccc4F)CC3=O)cc2c1 [Example 92, 5-Methoxy-benzofuran-2-carboxylic acid-{(S)-1-[1-(2-fluoro-benzenesulfonyl)-3-oxo-azepan-4-ylcarbamoyl]-3-methyl-butyl}-amide] | 6.3 | 49 | 
24 |  | CC(C)C[C@@H](NC(=O)c1cc2ccccc2s1)C(=O)N[C@@H]1CCCN(S(=O)(=O)c2ccccn2)CC1=O (stereo in doubt) [Example 31, Benzo[b]thiophene-2-carboxylic acid {(S)-3-methyl-1-[3-oxo-1-(pyridine-2-sulfonyl)-azepan-4-ylcarbamoyl]-butyl}amide] | 5 | 7.2 | 
25 |  | CC(C)C[C@@H](NC(=O)c1cc2sccc2s1)C(=O)N[C@@H]1CCCN(S(=O)(=O)c2ccccn2)CC1=O (single isomer, unassigned) [Example 98] | 3.9 | 5.2 | 

— patent US20030044399A1, “Method of treatment” (SmithKline Beecham Corporation, priority 1998, published 2003)
